Tested on: P12-Ichikawa
Experiment: cell viability relative to DMSO control; higher = less cytotoxic
Details: 48 h
Procedure, shortened: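 NOMO1 or SEM cells were plated at 500 cells/well and P12-Ichikawa cells at 1000 cells/well in 1536-well plates (5 μl), after each leukemia line had been adapted for at least four passages in each medium. Pin dosing delivered library compounds in DMSO at 11 threefold concentrations, 47 μM to 0.79 nM. CellTiter-Glo One luminescence was read after 48 h at 37°C. Viability is reported as a per-plate percentage of DMSO wells, with cell-free wells as background.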

[1] = HPLM + 10% dialyzed FBS, 0.000781 µM
[2] = HPLM + 10% dialyzed FBS, 0.00234 µM
[3] = HPLM + 10% dialyzed FBS, 0.00702 µM
[4] = HPLM + 10% dialyzed FBS, 0.0211 µM
[5] = HPLM + 10% dialyzed FBS, 0.0632 µM
[6] = HPLM + 10% dialyzed FBS, 0.19 µM
[7] = HPLM + 10% dialyzed FBS, 0.569 µM
[8] = HPLM + 10% dialyzed FBS, 1.71 µM
[9] = HPLM + 10% dialyzed FBS, 5.12 µM
[10] = HPLM + 10% dialyzed FBS, 15.4 µM
[11] = HPLM + 10% dialyzed FBS, 46.1 µM
[12] = RPMI 5 mM glucose + 10% FBS, 0.000781 µM
[13] = RPMI 5 mM glucose + 10% FBS, 0.00234 µM
[14] = RPMI 5 mM glucose + 10% FBS, 0.00702 µM
[15] = RPMI 5 mM glucose + 10% FBS, 0.0211 µM
[16] = RPMI 5 mM glucose + 10% FBS, 0.0632 µM
[17] = RPMI 5 mM glucose + 10% FBS, 0.19 µM
[18] = RPMI 5 mM glucose + 10% FBS, 0.569 µM
[19] = RPMI 5 mM glucose + 10% FBS, 1.71 µM
[20] = RPMI 5 mM glucose + 10% FBS, 5.12 µM
[21] = RPMI 5 mM glucose + 10% FBS, 15.4 µM
[22] = RPMI 5 mM glucose + 10% FBS, 46.1 µM
[23] = RPMI 5 mM glucose + 10% dialyzed FBS, 0.000781 µM
[24] = RPMI 5 mM glucose + 10% dialyzed FBS, 0.00234 µM
[25] = RPMI 5 mM glucose + 10% dialyzed FBS, 0.00702 µM
[26] = RPMI 5 mM glucose + 10% dialyzed FBS, 0.0211 µM
[27] = RPMI 5 mM glucose + 10% dialyzed FBS, 0.0632 µM
[28] = RPMI 5 mM glucose + 10% dialyzed FBS, 0.19 µM
[29] = RPMI 5 mM glucose + 10% dialyzed FBS, 0.569 µM
[30] = RPMI 5 mM glucose + 10% dialyzed FBS, 1.71 µM
[31] = RPMI 5 mM glucose + 10% dialyzed FBS, 5.12 µM
[32] = RPMI 5 mM glucose + 10% dialyzed FBS, 15.4 µM
[33] = RPMI 5 mM glucose + 10% dialyzed FBS, 46.1 µM

Compound	cell viability [1] [%]	cell viability [2] [%]	cell viability [3] [%]	cell viability [4] [%]	cell viability [5] [%]	cell viability [6] [%]	cell viability [7] [%]	cell viability [8] [%]	cell viability [9] [%]	cell viability [10] [%]	cell viability [11] [%]	cell viability [12] [%]	cell viability [13] [%]	cell viability [14] [%]	cell viability [15] [%]	cell viability [16] [%]	cell viability [17] [%]	cell viability [18] [%]	cell viability [19] [%]	cell viability [20] [%]	cell viability [21] [%]	cell viability [22] [%]	cell viability [23] [%]	cell viability [24] [%]	cell viability [25] [%]	cell viability [26] [%]	cell viability [27] [%]	cell viability [28] [%]	cell viability [29] [%]	cell viability [30] [%]	cell viability [31] [%]	cell viability [32] [%]	cell viability [33] [%]
CN(C)C1=CC(=CC=C1)C\2=C\3C(=O)N(NC3=C/C(=O)N2C)C4=CC=CC=C4Cl	114	112	106	111	113	95.8	90.3	10.8	4.69	4.7	7.14	113	122	116	110	117	110	103	25.7	9.73	8.05	15.8	122	114	114	112	120	109	102	41.3	21.1	16.6	23.9
N[S+](=O)([O-])c1cc2c(cc1Cl)NC(C(Cl)Cl)N[S+]2(=O)[O-] (configuration not stated)	102	109	105	112	113	118	117	120	114	123	118	114	120	111	120	126	129	127	130	139	123	128	109	117	104	118	118	122	114	124	121	122	115
CO[C@@]12[C@H](COC(N)=O)C/3=C(N1C[C@@H]4N[C@H]24)/C(=O)/C(=C(N)\C3=O)C	117	123	125	126	119	116	112	121	118	118	99.2																						
C/C(=N\NC(=S)N1CCC1)c1ccccn1	105	92.4	47.6	29.3	12	8.28	5.61	10.9	8.16	1.94	20.3	110	96.3	57.6	22.7	10.4	8.95	8.33	6.64	5.66	-0.453	9.21	117	107	64.9	29.8	12.9	9.03	6.61	6.04	3.26	-0.0472	8.99
CCC[S+](=O)([O-])Nc1ccc(F)c(C(=O)c2c[nH]c3ncc(Cl)cc23)c1F	110	116	109	119	112	110	99.8	108	103	65.7	44.2	115	115	121	116	114	115	123	113	113	85.6	54.7	118	118	119	118	120	115	111	110	99.8	72.3	44.2
CC(C)=CCC/C(C)=C/CC/C(C)=C/CC/C(C)=C/CC/C(C)=C/CC/C(C)=C/CC/C(C)=C/CC/C(C)=C/CC/C(C)=C/CO	107	109	108	112	116	109	109	108	104	93.4	106	105	103	115	103	108	98.7	105	97.1	91.3	87.1	96.1	98.3	100	92.7	99.6	103	102	106	97.3	87.9	95.9	90.3
OC1=CC=C(C=C1)\C2=C\OC3=C(C(=CC(=C3)O)O)C2=O	107	114	112	118	114	116	119	118	118	117	122	103	104	116	107	116	126	116	125	115	115	85.9	103	105	108	112	119	114	120	116	95	113	69.5
CC(=O)OC[C@H]1O[C@@H]([S-])[C@H](OC(C)=O)[C@@H](OC(C)=O)[C@@H]1OC(C)=O.CCP(CC)CC.[Au+]	89.2	88.1	91.2	99.2	94.1	102	98.6	94.5	71.7	6.24	6.03	86.8	89.2	90.6	93.1	82.2	90.6	93.4	89.3	14.8	5.1	4.94	87.8	84.1	81.6	92.7	79.7	87.6	91.9	78.2	6.72	5.18	5.56
